Data from patent US6630449B2, “Method for reducing the effect of nicotine addiction and dependancy” (priority 2000, dated 2003).
Read-outs that look alike come from different tables or passages of the source.

Columns and labels:
[1] = system: smoker (craving for nicotine); test: Treatment of smokers with corticotrophin injection to reduce craving for nicotine (case examples); format: in vivo, human
Description: Referring to the FIG. a suitable and preferred process for the treatment of smokers includes nutritional and relaxant supplements, corticotrophin administration, and counseling. On day one, the smoker comes into a clinic for orientation 10. At the time of the first office visit, a medical history is taken and a physical given 12 is taken by the physician, and a determination is made as to whether a given smoker is a satisfactory candidate for treatment 14. […] If the smoker is allowed to participate in the program, the physician will write a prescription of r the needed medications. Then, immediately before the smoker leaves the clinic, a pharmacist fills their prescription for and dispenses to the smoker their supply of nutrition supplements and mild relaxants 16. The next day, day two, the smoker has the first BMS 18. Then on day three the smoker comes back to the clinic and receives the first injection of corticotrophins 20 from the physician. This is the time and place the smoker gives up smoking 22. On day five the smoker participates in a second BMS 24. On day seven, the smoker returns to receive the second injection of corticotrophins 26 from the physician. On day fourteen the smoker, now presumably a former smoker, returns for the last BMS 28. […]

[2] = system: smokers (craving for nicotine); conditions: cited from earlier work; for time after first administration at which the effect starts to wear off / duration of nicotine craving relief: after injection

Substance: Adrenocorticotrophin hormone
- smoking cessation outcome ([1]; about 250 pounds, three packs a day, one injection of 160 units with counseling and nutritional supplements, no second injection): ceased smoking permanently
- smoking cessation outcome ([1]; comparative example, about 170 pounds, over one pack a day, one injection of 160 units, no appropriate counseling): resumed smoking
- time after first administration at which the effect starts to wear off / duration of nicotine craving relief ([2]; listed as Corticotrophins): fifty and one hundred
- time after first administration at which the effect starts to wear off / duration of nicotine craving relief ([2]; listed as corticotrophins): About seventy two
- effect on craving for nicotine ([2]; given to smokers intramuscularly): dramatically reduce the craving for nicotine
- patients who start smoking again ([2]; one administration (Bourne treatment), after about thirty days): thirty to sixty
- duration of reduced cravings for nicotine after one administration ([2]; one administration (Bourne treatment)): thirty
